Measured values taken from patent US10947242B2, “[1,2,4]triazolo[1,5and#8208;A]pyrimidine compounds as PDE2 inhibitors” (Janssen Pharmaceutica NV, priority 2016, dated 2021).
Values joined by “and” are separate entries in the source; they are usually repeats but may differ in a detail not shown here. Identical values can stand only once. Like-named read-outs stand apart in the source and are kept apart here.

Experiments:
[1] = molecular target: T1, Human recombinant PDE2A (hPDE2A) (Homo sapiens, UniProt O00408); experiment: In vitro assay PDE2A (SPA, 3H-cGMP hydrolysis); format: biochemical; conditions: for Emax: read-out: hPDE2A Emax
T1 construct: His tag (inferred from metal chelate purification); made in house; host or cells: Sf9 insect cells (baculovirus)

[2] = molecular target: T2, Human recombinant PDE10A (hPDE10A) (Homo sapiens, UniProt Q9Y233); experiment: In vitro assay PDE10A, human clone (SPA, 3H-cAMP hydrolysis); format: biochemical
T2 construct: His tag (inferred from metal chelate purification); made in house; host or cells: Sf9 insect cells (baculovirus)
In short: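 Human recombinant PDE10A was expressed in Sf9 cells via baculovirus and incubated with compound in 50 mM Tris pH 7.8, 8.3 mM MgCl2, 1.7 mM EGTA. Substrate was 60 nM cAMP plus 0.008 μCi 3H-cAMP for 60 min at room temperature, read by SPA scintillation counting. Controls used 1% DMSO, and blanks omitted enzyme.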

PDE2A = molecular target: T3, PDE2A (Rattus norvegicus, UniProt Q01062); experiment: PDE2 occupancy by test compounds, ex-vivo autoradiography with [3H]B-17a; format: in vivo, Male Wistar rats; conditions: for receptor occupancy at 10 mg/kg: percentage receptor occupancy, ex-vivo autoradiography, striatum; for ED50: drug dose producing 50% receptor occupancy, read-out: PDE Occupancy ED50
T3 construct: Twenty μm-thick striatal sections were cut; from tissue; host or cells: rat brain, striatal sections
T3 sequence (Q01062 1-928): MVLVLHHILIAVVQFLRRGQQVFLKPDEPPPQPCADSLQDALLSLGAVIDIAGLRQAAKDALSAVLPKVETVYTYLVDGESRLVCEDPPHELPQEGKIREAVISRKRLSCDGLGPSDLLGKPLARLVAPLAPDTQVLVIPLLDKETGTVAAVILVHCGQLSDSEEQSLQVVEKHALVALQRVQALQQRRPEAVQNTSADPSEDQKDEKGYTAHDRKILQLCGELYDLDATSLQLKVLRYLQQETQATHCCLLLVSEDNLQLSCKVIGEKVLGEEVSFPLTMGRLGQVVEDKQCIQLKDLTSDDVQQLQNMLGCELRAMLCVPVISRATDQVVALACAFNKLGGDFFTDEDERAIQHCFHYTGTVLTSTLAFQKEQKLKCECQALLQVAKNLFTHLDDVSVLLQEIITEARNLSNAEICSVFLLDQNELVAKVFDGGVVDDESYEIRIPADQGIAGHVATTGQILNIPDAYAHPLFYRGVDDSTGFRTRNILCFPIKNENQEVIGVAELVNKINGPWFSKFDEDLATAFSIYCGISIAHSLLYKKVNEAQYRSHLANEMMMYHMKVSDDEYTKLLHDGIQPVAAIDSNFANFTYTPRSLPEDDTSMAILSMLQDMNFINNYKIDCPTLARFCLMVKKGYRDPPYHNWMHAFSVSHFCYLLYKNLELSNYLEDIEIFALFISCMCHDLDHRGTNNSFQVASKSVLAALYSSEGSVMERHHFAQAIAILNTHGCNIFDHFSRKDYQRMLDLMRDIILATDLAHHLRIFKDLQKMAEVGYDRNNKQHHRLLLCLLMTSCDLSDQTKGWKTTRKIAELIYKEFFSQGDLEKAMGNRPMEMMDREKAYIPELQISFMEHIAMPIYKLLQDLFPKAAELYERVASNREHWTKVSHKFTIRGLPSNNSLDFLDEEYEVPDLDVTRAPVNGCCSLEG

[3] = molecular target: T4, Human recombinant PDE3A (hPDE3A) (Homo sapiens, UniProt Q14432); experiment: In vitro assay PDE3A (SPA, 3H-cAMP hydrolysis); format: biochemical; conditions: for IC50: hPDE3B pIC50, read-out: pIC50 (converted); for Emax: read-out: hPDE3B Emax, read-out: Emax;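 as to all read-outs here: the method names PDE3A and the table heading PDE3B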
T4 construct: purchased Scottish Biomedical; host or cells: Sf9 insect cells
In short: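 Human PDE3A, cloned from brain, as partially purified Sf9 lysate. Substrate 0.4 μM cAMP plus [3H]-cAMP (2.4 μCi/ml final) in 50 mM Tris pH 7.8, 8.3 mM MgCl2, 1.7 mM EGTA, 60 min at room temperature, 1% DMSO final. Hydrolysis read by SPA scintillation counting against no-enzyme blanks and DMSO controls.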

[4] = human recombinant PDE2A, 10 μM cGMP substrate, read-out: hPDE2A pIC50 (converted)
[5] = read-out: hPDE2A pIC50 (converted)
[6] = human clone (h), default, read-out: hPDE10A2 Emax
[7] = human clone (h), default, read-out: hPDE10A2 pIC50 (converted)
[8] = hPDE2A pIC50, human recombinant PDE2A, 10 μM cGMP substrate
[9] = human clone by default (no (r) mark), read-out: hPDE10A2 or rPDE10A2 Emax
[10] = human clone by default (no (r) mark), read-out: hPDE10A2 or rPDE10A2 pIC50 (converted)

T1 sequence (O00408 whole entry): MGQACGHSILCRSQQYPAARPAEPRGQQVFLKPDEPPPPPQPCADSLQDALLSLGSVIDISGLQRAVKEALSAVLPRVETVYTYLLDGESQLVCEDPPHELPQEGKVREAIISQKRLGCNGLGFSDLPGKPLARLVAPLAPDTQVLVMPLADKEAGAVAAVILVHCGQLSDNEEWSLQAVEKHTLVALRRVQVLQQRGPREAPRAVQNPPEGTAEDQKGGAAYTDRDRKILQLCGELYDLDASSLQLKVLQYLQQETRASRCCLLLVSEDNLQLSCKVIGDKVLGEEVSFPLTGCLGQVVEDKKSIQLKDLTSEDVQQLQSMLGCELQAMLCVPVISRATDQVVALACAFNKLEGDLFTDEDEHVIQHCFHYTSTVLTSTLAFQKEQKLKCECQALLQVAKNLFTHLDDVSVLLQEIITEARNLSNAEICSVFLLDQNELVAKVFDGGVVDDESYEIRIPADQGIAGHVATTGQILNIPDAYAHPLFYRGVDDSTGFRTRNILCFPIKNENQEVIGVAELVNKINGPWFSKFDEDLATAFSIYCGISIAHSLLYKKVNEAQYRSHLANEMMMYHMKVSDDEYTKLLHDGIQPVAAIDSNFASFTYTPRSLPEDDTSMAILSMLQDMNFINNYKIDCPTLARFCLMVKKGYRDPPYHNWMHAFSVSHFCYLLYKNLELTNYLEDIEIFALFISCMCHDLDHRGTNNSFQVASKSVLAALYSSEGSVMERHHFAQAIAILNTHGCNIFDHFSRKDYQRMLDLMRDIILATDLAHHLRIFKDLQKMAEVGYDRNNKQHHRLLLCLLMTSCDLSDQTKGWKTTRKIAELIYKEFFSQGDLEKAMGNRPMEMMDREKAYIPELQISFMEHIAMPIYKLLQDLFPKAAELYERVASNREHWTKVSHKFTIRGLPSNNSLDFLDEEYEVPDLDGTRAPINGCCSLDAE
T4 sequence (Q14432 whole entry): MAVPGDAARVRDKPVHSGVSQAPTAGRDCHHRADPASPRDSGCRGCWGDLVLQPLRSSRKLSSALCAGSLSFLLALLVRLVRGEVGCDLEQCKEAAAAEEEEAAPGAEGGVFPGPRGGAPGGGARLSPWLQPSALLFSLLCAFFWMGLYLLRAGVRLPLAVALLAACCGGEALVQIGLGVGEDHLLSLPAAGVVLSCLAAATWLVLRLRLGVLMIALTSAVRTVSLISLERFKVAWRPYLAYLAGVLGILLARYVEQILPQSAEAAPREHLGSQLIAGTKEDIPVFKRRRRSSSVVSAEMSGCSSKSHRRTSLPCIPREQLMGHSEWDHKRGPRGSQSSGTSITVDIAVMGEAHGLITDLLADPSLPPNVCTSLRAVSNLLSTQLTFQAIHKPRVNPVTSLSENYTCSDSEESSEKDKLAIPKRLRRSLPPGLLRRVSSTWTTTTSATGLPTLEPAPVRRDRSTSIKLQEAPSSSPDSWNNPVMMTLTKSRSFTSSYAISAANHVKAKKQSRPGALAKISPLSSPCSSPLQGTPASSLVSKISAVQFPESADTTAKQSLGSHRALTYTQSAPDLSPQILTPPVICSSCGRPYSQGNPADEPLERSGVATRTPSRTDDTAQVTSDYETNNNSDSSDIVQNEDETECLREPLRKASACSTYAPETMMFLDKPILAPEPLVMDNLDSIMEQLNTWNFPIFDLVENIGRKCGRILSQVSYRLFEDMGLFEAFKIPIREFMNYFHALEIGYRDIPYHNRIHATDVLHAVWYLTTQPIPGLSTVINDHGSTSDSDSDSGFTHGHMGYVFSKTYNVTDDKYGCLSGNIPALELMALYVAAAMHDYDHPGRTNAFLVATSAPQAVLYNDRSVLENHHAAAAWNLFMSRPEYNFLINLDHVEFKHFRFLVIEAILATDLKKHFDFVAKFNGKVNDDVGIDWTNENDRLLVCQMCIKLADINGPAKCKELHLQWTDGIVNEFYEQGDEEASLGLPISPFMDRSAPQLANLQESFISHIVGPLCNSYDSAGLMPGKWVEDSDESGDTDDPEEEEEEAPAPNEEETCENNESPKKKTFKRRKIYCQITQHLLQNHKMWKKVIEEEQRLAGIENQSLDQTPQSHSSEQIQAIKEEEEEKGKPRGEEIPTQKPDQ
T2 sequence (Q9Y233 267-1055): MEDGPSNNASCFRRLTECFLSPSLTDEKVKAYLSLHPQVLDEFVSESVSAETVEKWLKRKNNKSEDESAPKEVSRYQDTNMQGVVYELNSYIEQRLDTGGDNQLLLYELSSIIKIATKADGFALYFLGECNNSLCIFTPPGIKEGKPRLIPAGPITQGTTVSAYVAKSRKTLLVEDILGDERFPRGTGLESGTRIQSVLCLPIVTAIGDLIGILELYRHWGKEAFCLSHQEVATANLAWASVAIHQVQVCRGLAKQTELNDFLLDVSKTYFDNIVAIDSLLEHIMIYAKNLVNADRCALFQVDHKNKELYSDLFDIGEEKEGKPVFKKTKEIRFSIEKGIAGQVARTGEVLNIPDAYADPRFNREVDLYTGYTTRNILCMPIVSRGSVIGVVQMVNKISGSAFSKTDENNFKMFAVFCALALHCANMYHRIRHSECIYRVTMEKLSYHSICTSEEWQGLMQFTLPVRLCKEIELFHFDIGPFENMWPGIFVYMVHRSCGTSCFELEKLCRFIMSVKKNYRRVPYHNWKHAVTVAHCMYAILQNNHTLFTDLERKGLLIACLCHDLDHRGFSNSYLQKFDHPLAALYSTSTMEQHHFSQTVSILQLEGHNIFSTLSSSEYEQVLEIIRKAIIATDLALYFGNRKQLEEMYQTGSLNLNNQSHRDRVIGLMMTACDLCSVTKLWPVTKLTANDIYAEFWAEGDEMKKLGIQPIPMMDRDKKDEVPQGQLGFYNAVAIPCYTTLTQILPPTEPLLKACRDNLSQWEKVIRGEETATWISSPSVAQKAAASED

Structure (SMILES)	IC50 [1, 4]	Emax ([1]; human recombinant PDE2A) [%]	Emax [1] [%]	IC50 [1, 5] [nM]	Emax [2, 6] [%]	IC50 [2, 7]	melting point [°C]	receptor occupancy at 10 mg/kg (PDE2A; po, route PO (oral)) [%]	IC50 [3] [nM]	Emax [3] [%]	ED50 (PDE2A; route PO (oral)) [mg/kg]	hPDE10A2 Emax ([2]; human clone (h), default)	receptor occupancy at 10 mg/kg (PDE2A; sc, route SC (subcutaneous)) [%]	Emax [2, 9] [%]	IC50 [2, 10] [nM]	IC50 ([1]; hPDE2A pIC50) [nM]	IC50 [1, 8] [nM]
C[C@@H]1CCN(C(=O)c2ccc3cc[nH]c3c2)C[C@H]1c1cc(C(F)F)nc2ncnn12 [Compound 106]	0.891 nM	100	100	0.891	99	21.4 nM	273.02	0	389	98							
C[C@@H]1CCN(C(=O)c2ccc3ocnc3c2)C[C@H]1c1cc(C(F)F)nc2ncnn12 [Compound 116]	1.15 nM and 1.12 nM	100	101	1.12	99	9.77 nM and 79.4 nM	192.09		2190	82		98	3				
C[C@@H]1CCN(C(=O)c2ccnc(C3CC3)c2F)C[C@H]1c1cc(C(F)F)nc2ncnn12 [Compound 120]	1.74 nM	100	100	1.74	96	200 nM	173.99	12	708	95							
Cc1cc(C)cc(C(=O)N2CC[C@@H](C)[C@H](c3cc(C(F)F)nc4ncnn34)C2)c1 [Compound 123]			99		99	91.2 nM	203.87	4	1620	87						1.95	1.95
Cc1cc(C(=O)N2CC[C@@H](C)[C@H](c3cc(C(F)F)nc4ncnn34)C2)cc(Cl)c1F [Compound 129]			101		99	91.2 nM	140.78	21	1950	85						2.29	2.29
Cc1cc(C#N)cc(C(=O)N2CC[C@@H](C)[C@H](c3cc(C(F)F)nc4ncnn34)C2)c1 [Compound 131]			98		99	40.7 nM	224.39	0	7760	61						2.45	2.45
COc1ccc(C(=O)N2CC[C@@H](C)[C@H](c3cc(C(F)F)nc4ncnn34)C2)cc1OC(F)F [Compound 133]	2.95 nM	100	100	2.95	98	135 nM	152.33	-19	1620	85							
Cc1cc(C(=O)N2CC[C@@H](C)[C@H](c3cc(C(F)F)nc4ncnn34)C2)cc(F)c1F [Compound 189]			100		96	186 nM	152.03	9	2750	80						5.13	5.13
C[C@@H]1CCN(C(=O)c2ccc(F)c(C(F)F)c2)C[C@H]1c1cc(C(F)F)nc2ncnn12 [Compound 191]	12.9 nM	100	100	12.9	97	224 nM	162.07	-18	3890	74							
C[C@@H]1CCN(C(=O)c2ccc(OC(F)F)c(F)c2)C[C@H]1c1cc(C(F)F)nc2ncnn12 [Compound 192]	9.33 nM	99	99	9.33	99	72.4 nM	110.16	-13	724	95							
Cc1cc([C@@H]2CN(C(=O)c3cc(C4CC4)ncc3F)CC[C@H]2C)n2ncnc2n1 [Compound 224]			100	3.02			153.14	-6	1050	87				99	70.8		
COc1cc(C(=O)N2CC[C@@H](C)[C@H](c3cc(C)nc4ncnn34)C2)c(F)cn1 [Compound 225]			99	11.5			178.64	-6	1780	83				98	93.3		

The next lines start with results.

IC50 [1, 4]	Emax ([1]; human recombinant PDE2A) [%]	Emax [1] [%]	IC50 [1, 5] [nM]	Emax [2, 6] [%]	IC50 [2, 7]	melting point [°C]	receptor occupancy at 10 mg/kg (PDE2A; po, route PO (oral)) [%]	IC50 [3] [nM]	Emax [3] [%]	ED50 (PDE2A; route PO (oral)) [mg/kg]	hPDE10A2 Emax ([2]; human clone (h), default)	receptor occupancy at 10 mg/kg (PDE2A; sc, route SC (subcutaneous)) [%]	Emax [2, 9] [%]	IC50 [2, 10] [nM]	Structure (SMILES)	IC50 ([1]; hPDE2A pIC50) [nM]	IC50 [1, 8] [nM]
0.912 nM	100	100	0.912	99	52.5 nM	151.39	65	2690	80	4.8					COc1cc(C(=O)N2CC[C@@H](C)[C@H](c3cc(C(F)F)nc4ncnn34)C2)cc(Cl)n1 [Compound 108]		
1.86 nM	100	100	1.86	100	74.1 nM	160.2	0	1820	86						COc1cc(C(=O)N2CC[C@@H](C)[C@H](c3cc(C(F)F)nc4ncnn34)C2)cc(C(C)C)n1 [Compound 122]		
2.09 nM	101	101	2.09	97	112 nM	114.32	31	6030	65						Cc1csc(C(=O)N2CC[C@@H](C)[C@H](c3cc(C(F)F)nc4ncnn34)C2)c1 [Compound 126]		
2.24 nM	99	99	2.24	99	25.7 nM	139.13	34	437	94			53			Cc1nc2ccc(C(=O)N3CC[C@@H](C)[C@H](c4cc(C(F)F)nc5ncnn45)C3)cc2o1 [Compound 127]		
2.45 nM	100	100	2.45	96	135 nM	193.85	0	1740	87						COc1cc(C(=O)N2CC[C@@H](C)[C@H](c3cc(C(F)F)nc4ncnn34)C2)ccc1Cl [Compound 130]		
2.51 nM	101	101	2.51	98	200 nM	116.57		> 10000	46	5		76			Cc1cc(C(=O)N2CC[C@@H](C)[C@H](c3cc(C(F)F)nc4ncnn34)C2)cc(C(F)(F)F)n1 [Compound 132]		
